Test results taken from patent publication US7125990B2, “Imidazolyl derivatives as corticotropin releasing factor inhibitors” (Bristol-Myers Squibb COmpany, priority 2001, dated 2006).
Where two headings read alike, the source gives them in different places.

Biological target: T1, CRF1 receptors (Homo sapiens, UniProt P34998)
T1 construct: endogenous in cells; host or cells: IMR-32 cells, transformed with 2.5 µM 5'-bromo-2'-deoxyuridine for 10 days; membrane preparation
T1 sequence (P34998 24-415): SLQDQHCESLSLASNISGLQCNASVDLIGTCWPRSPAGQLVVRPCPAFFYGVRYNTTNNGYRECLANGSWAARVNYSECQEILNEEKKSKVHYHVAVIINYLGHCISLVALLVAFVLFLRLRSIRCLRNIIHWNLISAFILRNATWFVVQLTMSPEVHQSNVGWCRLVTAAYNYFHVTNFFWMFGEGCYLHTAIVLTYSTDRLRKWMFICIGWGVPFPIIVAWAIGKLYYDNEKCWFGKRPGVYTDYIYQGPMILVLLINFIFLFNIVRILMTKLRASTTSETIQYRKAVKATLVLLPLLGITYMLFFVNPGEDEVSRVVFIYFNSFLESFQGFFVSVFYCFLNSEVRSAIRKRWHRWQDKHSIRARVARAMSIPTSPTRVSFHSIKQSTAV
Experiment: CRF1 receptor radioligand binding assay ([125I]-oCRF competition, IMR-32 cell membranes)
Procedure, shortened: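 Buffer: Tris pH 7.2 with MgCl2, BSA, Triton X-100, aprotinin, leupeptin; reaction stopped with ice-cold wash and filtered. Nonspecific binding set with 10 μM oCRF.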

[1] = IMR-32 cell membranes, [125I]-oCRF 100 pM, read-out: Ki (CRF-1R)

## Cc1cc(C)c(-n2c3ccccc3n3c(CN(CCC(F)(F)F)CC4CC4)c(C(F)(F)F)nc23)c(C)c1 [Example 152, Cyclopropylmethyl-[2-trifluoromethyl-8-(2,4,6-trimethyl-phenyl)-8H-1,3a,8-triaza-cyclopenta[α]inden-3-ylmethyl]-(3,3,3-trifluoro-propyl)-amine]
[1]
  Ki: < 100 nM

## CCCN(Cc1c(C(F)(F)F)nc2n(-c3c(C)cc(C)cc3C)c3ccccc3n12)CC1CCC1 [Example 153, Cyclobutylmethyl-propyl-[2-trifluoromethyl-8-(2,4,6-trimethyl-phenyl)-8H-1,3a,8-triaza-cyclopenta[α]inden-3-ylmethyl]-amine]
[1]
  Ki: < 100 nM

## CCN(Cc1c(C(F)(F)F)nc2n(-c3c(C)cc(C)cc3C)c3ccccc3n12)CC1CC1 [Example 154, Cyclopropylmethyl-ethyl-[2-trifluoromethyl-8-(2,4,6-trimethyl-phenyl)-8H-1,3a,8-triaza-cyclopenta[α]inden-3-ylmethyl]-amine]
[1]
  Ki: < 100 nM

## Cc1cc(C)c(-n2c3ccccc3n3c(CN(CC4CC4)CC(F)(F)C(F)(F)F)c(C(F)(F)F)nc23)c(C)c1 [Example 155, Cyclopropylmethyl-(2,2,3,3,3-pentafluoro-propyl)-[2-trifluoromethyl-8-(2,4,6-trimethyl-phenyl)-8H-1,3a,8-triaza-cyclopenta[α]inden-3-ylmethyl]-amine]
  Ki: < 100 nM

## Cc1cc(C)c(-n2c3ccccc3n3c(CN(CC4CCC4)CC(F)(F)F)c(C(F)(F)F)nc23)c(C)c1 [Example 156, Cyclobutylmethyl-(2,2,2-trifluoro-ethyl)-[2-trifluoromethyl-8-(2,4,6-trimethyl-phenyl)-8H-1,3a,8-triaza-cyclopenta[α]inden-3-ylmethyl]-amine]
[1]
  Ki: < 100 nM

## CCCN(CCC(F)(F)F)Cc1c(C(F)(F)F)nc2n(-c3c(C)cc(C)cc3C)c3ccccc3n12 [Example 157, Propyl-[2-trifluoromethyl-8-(2,4,6-trimethyl-phenyl)-8H-1,3a,8-triaza-cyclopenta[α]inden-3-ylmethyl]-(3,3,3-trifluoro-propyl)-amine]
[1]
  Ki: < 100 nM

## CCCN(Cc1c(C(F)(F)F)nc2n(-c3c(C)cc(C)cc3C)c3ccccc3n12)CC(F)(F)C(F)(F)F [Example 158, (2,2,3,3,3-Pentafluoro-propyl)-propyl-[2-trifluoromethyl-8-(2,4,6-trimethyl-phenyl)-8H-1,3a,8-triaza-cyclopenta[α]inden-3-ylmethyl]-amine]
[1]
  Ki: < 100 nM

## CCCN(Cc1c(C(F)(F)F)nc2n(-c3c(C)cc(C)cc3C)c3ccccc3n12)CC(F)(F)F [Example 159, Propyl-(2,2,2-trifluoro-ethyl)-[2-trifluoromethyl-8-(2,4,6-trimethyl-phenyl)-8H-1,3a,8-triaza-cyclopenta[α]inden-3-ylmethyl]-amine]
[1]
  Ki: < 100 nM

## C=CCN(CC=C)Cc1c(C(F)(F)F)nc2n(-c3c(C)cc(C)cc3C)c3ccccc3n12 [Example 160, Diallyl-[2-trifluoromethyl-8-(2,4,6-trimethyl-phenyl)-8H-1,3a,8-triaza-cyclopenta[α]inden-3-ylmethyl]-amine]
[1]
  Ki: < 1000 nM

## CCCN(CCc1ccccc1)Cc1c(C(F)(F)F)nc2n(-c3c(C)cc(C)cc3C)c3ccccc3n12 [Example 161, Phenethyl-propyl-[2-trifluoromethyl-8-(2,4,6-trimethyl-phenyl)-8H-1,3a,8-triaza-cyclopenta[α]inden-3-ylmethyl]-amine]
[1]
  Ki: < 1000 nM

## CCN(CCc1ccccc1)Cc1c(C(F)(F)F)nc2n(-c3c(C)cc(C)cc3C)c3ccccc3n12 [Example 163, Ethyl-phenethyl-[2-trifluoromethyl-8-(2,4,6-trimethyl-phenyl)-8H-1,3a,8-triaza-cyclopenta[α]inden-3-ylmethyl]-amine]
[1]
  Ki: < 1000 nM

## CCCN(CCC1CC1)Cc1c(C(F)(F)F)nc2n(-c3c(C)cc(C)cc3C)c3ccccc3n12 [Example 164, (2-Cyclopropyl-ethyl)-propyl-[2-trifluoromethyl-8-(2,4,6-trimethyl-phenyl)-8H-1,3a,8-triaza-cyclopenta[α]inden-3-ylmethyl]-amine]
[1]
  Ki: < 1000 nM

## Cc1cc(C)c(-n2c3ccccc3n3c(CN(CCC4CC4)CCC(F)(F)F)c(C(F)(F)F)nc23)c(C)c1 [Example 166, (2-Cyclopropyl-ethyl)-[2-trifluoromethyl-8-(2,4,6-trimethyl-phenyl)-8H-1,3a,8-triaza-cyclopenta[α]inden-3-ylmethyl]-(3,3,3-trifluoro-propyl)-amine]
[1]
  Ki: < 1000 nM

## Cc1cc(C)c(-n2c3ccccc3n3c(CN(C)Cc4ccccc4)c(C(F)(F)F)nc23)c(C)c1 [Example 167, Benzyl-methyl-[2-trifluoromethyl-8-(2,4,6-trimethyl-phenyl)-8H-1,3a,8-triaza-cyclopenta[α]inden-3-ylmethyl]-amine]
[1]
  Ki: < 1000 nM

## Cc1cc(C)c(-n2c3ccccc3n3c(CN(CCC4CC4)CC(F)(F)F)c(C(F)(F)F)nc23)c(C)c1 [Example 169, (2-Cyclopropyl-ethyl)-(2,2,2-trifluoro-ethyl)-[2-trifluoromethyl-8-(2,4,6-trimethyl-phenyl)-8H-1,3a,8-triaza-cyclopenta[α]inden-3-ylmethyl]-amine]
[1]
  Ki: < 1000 nM

## CCCCN(CC)Cc1c(C(F)(F)F)nc2n(-c3c(C)cc(C)cc3C)c3ccccc3n12 [Example 170, Butyl-ethyl-[2-trifluoromethyl-8-(2,4,6-trimethyl-phenyl)-8H-1,3a,8-triaza-cyclopenta[α]inden-3-ylmethyl]-amine]
[1]
  Ki: < 1000 nM

## Cc1cc(C)c(-n2c3ccccc3n3c(CN(CCc4ccccc4)CC(F)(F)F)c(C(F)(F)F)nc23)c(C)c1 [Example 171, Phenethyl-(2,2,2-trifluoro-ethyl)-[2-trifluoromethyl-8-(2,4,6-trimethyl-phenyl)-8H-1,3a,8-triaza-cyclopenta[α]inden-3-ylmethyl]-amine]
[1]
  Ki: < 1000 nM

## CCN(CCC1CC1)Cc1c(C(F)(F)F)nc2n(-c3c(C)cc(C)cc3C)c3ccccc3n12 [Example 172, (2-Cyclopropyl-ethyl)-ethyl-[2-trifluoromethyl-8-(2,4,6-trimethyl-phenyl)-8H-1,3a,8-triaza-cyclopenta[α]inden-3-ylmethyl]-amine]
[1]
  Ki: < 10000 nM

## CCN(Cc1ccccc1)Cc1c(C(F)(F)F)nc2n(-c3c(C)cc(C)cc3C)c3ccccc3n12 [Example 173, Benzyl-ethyl-[2-trifluoromethyl-8-(2,4,6-trimethyl-phenyl)-8H-1,3a,8-triaza-cyclopenta[α]inden-3-ylmethyl]-amine]
[1]
  Ki: < 10000 nM

## CCN(CCc1ccccc1)Cc1c(C(F)(F)F)nc2n(-c3c(C)cc(C)cc3C)c3ccccc3n12 [Example 174, Ethyl-phenethyl-[2-trifluoromethyl-8-(2,4,6-trimethyl-phenyl)-8H-1,3a,8-triaza-cyclopenta[α]inden-3-ylmethyl]-amine]
[1]
  Ki: < 10000 nM

## CCCN(Cc1ccccc1)Cc1c(C(F)(F)F)nc2n(-c3c(C)cc(C)cc3C)c3ccccc3n12 [Example 175, Benzyl-propyl-[2-trifluoromethyl-8-(2,4,6-trimethyl-phenyl)-8H-1,3a,8-triaza-cyclopenta[α]inden-3-ylmethyl]-amine]
[1]
  Ki: < 10000 nM

## CCCCN(Cc1ccccc1)Cc1c(C(F)(F)F)nc2n(-c3c(C)cc(C)cc3C)c3ccccc3n12 [Example 176, Benzyl-butyl-[2-trifluoromethyl-8-(2,4,6-trimethyl-phenyl)-8H-1,3a,8-triaza-cyclopenta[α]inden-3-ylmethyl]-amine]
[1]
  Ki: < 10000 nM

## FC(F)(F)c1nc2n(-c3ccc(Cl)cc3Cl)c3ccccc3n2c1CN(CC1CC1)CC1CC1 [Example 177, Bis-cyclopropylmethyl-[8-(2,4-dichloro-phenyl)-2-trifluoromethyl-8H-1,3a,8-triaza-cyclopenta[α]inden-3-ylmethyl]-amine]
[1]
  Ki: < 1000 nM

## CCCN(Cc1c(C(F)(F)F)nc2n(-c3ccc(Cl)cc3Cl)c3ccccc3n12)CC1CC1 [Example 178, Cyclopropylmethyl-[8-(2,4-dichloro-phenyl)-2-trifluoromethyl-8H-1,3a,8-triaza-cyclopenta[α]inden-3-ylmethyl]-propyl-amine]
[1]
  Ki: < 1000 nM

## FC(F)(F)CN(Cc1c(C(F)(F)F)nc2n(-c3ccc(Cl)cc3Cl)c3ccccc3n12)CC1CC1 [Example 179, Cyclopropylmethyl-[8-(2,4-dichloro-phenyl)-2-trifluoromethyl-8H-1,3a,8-triaza-cyclopenta[α]inden-3-ylmethyl]-(2,2,2-trifluoro-ethyl)-amine]
[1]
  Ki: < 1000 nM

## FC(F)(F)CCN(Cc1c(C(F)(F)F)nc2n(-c3ccc(Cl)cc3Cl)c3ccccc3n12)CC1CC1 [Example 180, Cyclopropylmethyl-[8-(2,4-dichloro-phenyl)-2-trifluoromethyl-8H-1,3a,8-triaza-cyclopenta[α]inden-3-ylmethyl]-(3,3,3-trifluoro-propyl)-amine]
[1]
  Ki: < 10000 nM

## CCN(Cc1c(C(F)(F)F)nc2n(-c3ccc(Cl)cc3Cl)c3ccccc3n12)CC1CC1 [Example 181, Cyclopropylmethyl-[8-(2,4-dichloro-phenyl)-2-trifluoromethyl-8H-1,3a,8-triaza-cyclopenta[α]inden-3-ylmethyl]-ethyl-amine]
[1]
  Ki: < 10000 nM

## CCCN(CCc1ccccc1)Cc1c(C(F)(F)F)nc2n(-c3ccc(Cl)cc3Cl)c3ccccc3n12 [Example 182, [8-(2,4-Dichloro-phenyl)-2-trifluoromethyl-8H-1,3a,8-triaza-cyclopenta[α]inden-3-ylmethyl]-phenethyl-propyl-amine]
[1]
  Ki: < 10000 nM
